Earlier results, collected in PubChem BioAssay AID1259409 (Chemical Carcinogenesis Research Information System (CCRIS), 2018).

System: rodent chemically induced tumor inhibition, incidence and multiplicity
Test: CCRIS tumor inhibitor studies

Oc1ccccc1O
tumour outcome (control, treated, inhibition, significance) (Carcinogen: 3,2'-DIMETHYL-4-AMINOBIPHENYL, 13394-86-0, Dose [Inhibitor]: 0, 0.8% IN BASAL DIET BEGINNING POST CARCINOGEN TREATMENT AND CONTINUING FOR 40 (STUDY DURATION: 60 WK), Route [Inhibitor]: ORAL, Species: RAT, Strain/Sex: F344/MALE, Target Tissue: Type of Lesion: SUBCUTIS: TUMOR, Dose [Carcinogen]: 50 MG/KG 1/2 WK FOR 20 WK TO RATS MAINTAINED ON ETHINYL ESTRADIOL CONTAINING DIET (0.75 PPM) FOR 1 WK CYCLED WITH ETHINY, Promoter: ETHINYL ESTRADIOL, 57-63-6): 1/10 (10%), 1/11 (9%), 10%, not significant | tumour outcome (control, treated, inhibition, significance) (Carcinogen: 3,2'-DIMETHYL-4-AMINOBIPHENYL, 13394-86-0, Dose [Inhibitor]: 0, 0.8% IN BASAL DIET BEGINNING POST CARCINOGEN TREATMENT AND CONTINUING FOR 40 WK (STUDY DURATION: 60 WK), Route [Inhibitor]: ORAL, Species: RAT, Strain/Sex: F344/MALE, Target Tissue: Type of Lesion: LARGE INTESTINE: ADENOMA AND ADENOCARCINOMA, Dose [Carcinogen]: 50 MG/KG 1/2 WK FOR 20 WK TO RATS MAINTAINED ON ETHINYL ESTRADIOL CONTAINING DIET (0.75 PPM) FOR 1 WK CYCLED WITH ETHINY, Promoter: ETHINYL ESTRADIOL, 57-63-6): 3/10 (30%), 5/11 (45%), -50%, not significant | tumour outcome (control, treated, inhibition, significance) (Carcinogen: 3,2'-DIMETHYL-4-AMINOBIPHENYL, 13394-86-0, Dose [Inhibitor]: 0, 0.8% IN BASAL DIET BEGINNING POST CARCINOGEN TREATMENT AND CONTINUING FOR 40 WK (STUDY DURATION: 60 WK), Route [Inhibitor]: ORAL, Species: RAT, Strain/Sex: F344/MALE, Target Tissue: Type of Lesion: PANCREAS: ACINAR CELL NODULE, Dose [Carcinogen]: 50 MG/KG 1/2 WK FOR 20 WK TO RATS MAINTAINED ON ETHINYL ESTRADIOL CONTAINING DIET (0.75 PPM) FOR 1 WK CYCLED WITH ETHINY, Promoter: ETHINYL ESTRADIOL, 57-63-6): 4/10 (40%), 4/11 (36%), 10%, not significant | tumour outcome (control, treated, inhibition, significance) (Carcinogen: 3,2'-DIMETHYL-4-AMINOBIPHENYL, 13394-86-0, Dose [Inhibitor]: 0, 0.8% IN BASAL DIET BEGINNING POST CARCINOGEN TREATMENT AND CONTINUING FOR 40 WK (STUDY DURATION: 60 WK), Route [Inhibitor]: ORAL, Species: RAT, Strain/Sex: F344/MALE, Target Tissue: Type of Lesion: PREPUTIAL GLAND: ADENOMA AND CARCINOMA, Dose [Carcinogen]: 50 MG/KG 1/2 WK FOR 20 WK TO RATS MAINTAINED ON ETHINYL ESTRADIOL CONTAINING DIET (0.75 PPM) FOR 1 WK CYCLED WITH ETHINY, Promoter: ETHINYL ESTRADIOL, 57-63-6): 5/10 (50%), 4/11 (36%), 28%, not significant | tumour outcome (control, treated, inhibition, significance) (Carcinogen: 3,2'-DIMETHYL-4-AMINOBIPHENYL, 13394-86-0, Dose [Inhibitor]: 0, 0.8% IN BASAL DIET BEGINNING POST CARCINOGEN TREATMENT AND CONTINUING FOR 40 WK (STUDY DURATION: 60 WK), Route [Inhibitor]: ORAL, Species: RAT, Strain/Sex: F344/MALE, Target Tissue: Type of Lesion: PROSTATE: CARCINOMA, Dose [Carcinogen]: 50 MG/KG 1/2 WK FOR 20 WK TO RATS MAINTAINED ON ETHINYL ESTRADIOL CONTAINING DIET (0.75 PPM) FOR 1 WK CYCLED WITH ETHINY, Promoter: ETHINYL ESTRADOL, 57-63-6): 5/10 (50%), 3/11 (27%), 46%, not significant | tumour outcome (control, treated, inhibition, significance) (Carcinogen: 3,2'-DIMETHYL-4-AMINOBIPHENYL, 13394-86-0, Dose [Inhibitor]: 0, 0.8% IN BASAL DIET BEGINNING POST CARCINOGEN TREATMENT AND CONTINUING FOR 40 WK (STUDY DURATION: 60 WK), Route [Inhibitor]: ORAL, Species: RAT, Strain/Sex: F344/MALE, Target Tissue: Type of Lesion: SMALL INTESTINE: ADENOMA AND ADENOCARCINOMA, Dose [Carcinogen]: 50 MG/KG 1/2 WK FOR 20 WK TO RATS MAINTAINED ON ETHINYL ESTRADIOL CONTAINING DIET (0.75 PPM) FOR 1 WK CYCLED WITH ETHINY, Promoter: ETHINYL ESTRADIOL, 57-63-6): 2/10 (20%), 1/11 (9%), 55%, not significant | tumour outcome (control, treated, inhibition, significance) (Carcinogen: 3,2-DIMETHYL-4-AMINOBIPHENYL, 13394-86-0, Dose [Inhibitor]: 0, 0.8% IN BASAL DIET BEGINNING POST CARCINOGEN TREATMENT AND CONTINUING FOR 40 WK (STUDY DURATION: 60 WK), Route [Inhibitor]: ORAL, Species: RAT, Strain/Sex: F344/MALE, Target Tissue: Type of Lesion: ZYMBAL GLAND: ADENOMA AND CARCINOMA, Dose [Carcinogen]: 50 MG/KG 1/2 WK FOR 20 WK TO RATS MAINTAINED ON ETHINYL ESTRADIOL CONTAINING DIET (0.75 PPM) FOR 1 WK CYCLED WITH ETHINY, Promoter: ETHINYL ESTRADIOL, 57-63-6): 2/10 (20%), 0/11 (0%), 100%, not significant | tumour outcome (control, treated, inhibition, significance) (Carcinogen: 7,12-DIMETHYLBENZ[A]ANTHRACENE, 57-97-6, Dose [Inhibitor]: 0, 0.4% IN DIET FOR 35 WK BEGINNING POST CARCINOGEN DOSE (STUDY DURATION: 36 WK), Route [Inhibitor]: ORAL, Species: RAT, Strain/Sex: SPRAGUE-DAWLEY/FEMALE, Target Tissue: Type of Lesion: EAR DUCT: TUMOR, Dose [Carcinogen]: 50 MG/KG BW IN CORN OIL ONCE, Promoter: NONE USED): 5/15 (33%), 2/15 (13%), 61%, not significant | tumour outcome (control, treated, inhibition, significance) (Carcinogen: 7,12-DIMETHYLBENZ[A]ANTHRACENE, 57-97-6, Dose [Inhibitor]: 0, 0.4% IN DIET FOR 35 WK BEGINNING POST CARCINOGEN DOSE (STUDY DURATION: 36 WK), Route [Inhibitor]: ORAL, Species: RAT, Strain/Sex: SPRAGUE-DAWLEY/FEMALE, Target Tissue: Type of Lesion: MAMMARY GLAND: ADENOCARCINOMA, Dose [Carcinogen]: 50 MG/KG BW IN CORN OIL ONCE, Promoter: NONE USED): 14/15 (93%), 15/15 (100%), -8%, not significant | tumour outcome (control, treated, inhibition, significance) (Carcinogen: 7,12-DIMETHYLBENZ[A]ANTHRACENE, 57-97-6, Dose [Inhibitor]: 0, 0.4% IN DIET FOR 35 WK BEGINNING POST CARCINOGEN DOSE (STUDY DURATION: 36 WK), Route [Inhibitor]: ORAL, Species: RAT, Strain/Sex: SPRAGUE-DAWLEY/FEMALE, Target Tissue: Type of Lesion: MAMMARY GLAND: FIBROADENOMA, Dose [Carcinogen]: 50 MG/KG BW IN CORN OIL ONCE, Promoter: NONE USED): 3/15 (20%), 0/15 (0%), 100%, not significant | tumour outcome (control, treated, inhibition, significance) (Carcinogen: 7,12-DIMETHYLBENZ[A]ANTHRACENE, 57-97-6, Dose [Inhibitor]: 0, 12 MG 2/WK FOR 30 WK APPLIED 20 MIN PRIOR TO EACH PROMOTER DOSE (STUDY DURATION: 32 WK), Route [Inhibitor]: DERMAL, Species: MOUSE, Strain/Sex: SENCAR/FEMALE, Target Tissue: Type of Lesion: SKIN: PAPILLOMA, Dose [Carcinogen]: 25 NMOL ONCE, Promoter: M-CHLOROPEROXYBENZOIC ACID, 937-14-4): 39%, 0%, 100%, not calculated | tumour outcome (control, treated, inhibition, significance) (Carcinogen: BENZO[A]PYRENE, 50-32-8, Dose [Inhibitor]: 2 MG IN 0.1 ML ACETONE 3/WK ADMINISTERED SIMULTANEOUSLY WITH CARCINOGEN FOR DURATION OF STUDY (STUDY DURATION: 368 D), Route [Inhibitor]: DERMAL, Species: MOUSE, Strain/Sex: ICR/FEMALE, Target Tissue: Type of Lesion: SKIN: PAPILLOMA, Dose [Carcinogen]: 5 UG IN 0.1 ML ACETONE 3/WK FOR DURATION OF STUDY, Promoter: NONE USED): 14/50 (28%), 36/50 (72%), -157%, not calculated | tumour outcome (control, treated, inhibition, significance) (Carcinogen: BENZO[A]PYRENE, 50-32-8, Dose [Inhibitor]: 2 MG IN 0.1 ML ACETONE 3/WK ADMINISTERED SIMULTANEOUSLY WITH CARCINOGEN FOR DURATION OF STUDY (STUDY DURATION: 368 D), Route [Inhibitor]: DERMAL, Species: MOUSE, Strain/Sex: ICR/FEMALE, Target Tissue: Type of Lesion: SKIN: SQUAMOUS CARCINOMA, Dose [Carcinogen]: 5 UG IN 0.1 ML ACETONE 3/WK FOR DURATION OF STUDY, Promoter: NONE USED): 10/50 (20%), 31/50 (62%), -210%, not calculated | tumour outcome (control, treated, inhibition, significance) (Carcinogen: N-BIS(2-HYDROXYPROPYL)NITROSAMINE, 53609-64-6, Dose [Inhibitor]: 0, 0.8% IN DIET FOR 30 WK BEGINNING POST CARCINOGEN TREATMENT (STUDY DURATION: 32 WK), Route [Inhibitor]: ORAL, Species: RAT, Strain/Sex: F344/MALE, Target Tissue: Type of Lesion: BLADDER: ADENOMA, Dose [Carcinogen]: 0.1% IN DRINKING WATER FOR 2 WK, Promoter: NONE USED): 5%, 0%, 100%, not calculated
